US11434249B1, “ASK1 inhibitor compounds and uses thereof” (Seal Rock Therapeutics, Inc., priority 2018, dated 2022)
pIC50: −log10 of the molar value.

biological target: ASK1 (Homo sapiens (Human), UniProt Q99683); assay: ASK1 Kinase Assay (Promega ASK1 Kinase Enzyme System, ADP-Glo luminescence); assay type: biochemical; conditions: at 10 μM compound; enzyme 50 nM, ATP 10 μM
Experimental: The ASK1 enzymatic assay was run following Promega ASK1 Kinase Enzyme System (Cat #V3881). The kit provides the protocol, enzymes and all reagents necessary to run an assay.
The compounds, enzyme, substrate and ATP were diluted in provided assay buffer. The final concentration of the enzyme was 50 nM, substrate (Myelin basic protein) 1 μg/mL and ATP 10 μM. The compound and the enzyme were pre-incubated in a 384-well white solid bottom plate (Greiner, Cat #784075) for 10 minutes. After incubation, the substrate and ATP were added and incubated for an additional 60 minutes. After 60 minutes, ADP-Glo™ was added and the plate was incubated for another 40 minutes. After 40 minutes, Kinase Detection Reagent was added and the plate was incubated for 45 minutes. After 45 minutes, the plate was read on a Perkin Elmer EnVision using luminescence read (0.5 seconds/well).

Sequence of ASK1 (Q99683 whole entry): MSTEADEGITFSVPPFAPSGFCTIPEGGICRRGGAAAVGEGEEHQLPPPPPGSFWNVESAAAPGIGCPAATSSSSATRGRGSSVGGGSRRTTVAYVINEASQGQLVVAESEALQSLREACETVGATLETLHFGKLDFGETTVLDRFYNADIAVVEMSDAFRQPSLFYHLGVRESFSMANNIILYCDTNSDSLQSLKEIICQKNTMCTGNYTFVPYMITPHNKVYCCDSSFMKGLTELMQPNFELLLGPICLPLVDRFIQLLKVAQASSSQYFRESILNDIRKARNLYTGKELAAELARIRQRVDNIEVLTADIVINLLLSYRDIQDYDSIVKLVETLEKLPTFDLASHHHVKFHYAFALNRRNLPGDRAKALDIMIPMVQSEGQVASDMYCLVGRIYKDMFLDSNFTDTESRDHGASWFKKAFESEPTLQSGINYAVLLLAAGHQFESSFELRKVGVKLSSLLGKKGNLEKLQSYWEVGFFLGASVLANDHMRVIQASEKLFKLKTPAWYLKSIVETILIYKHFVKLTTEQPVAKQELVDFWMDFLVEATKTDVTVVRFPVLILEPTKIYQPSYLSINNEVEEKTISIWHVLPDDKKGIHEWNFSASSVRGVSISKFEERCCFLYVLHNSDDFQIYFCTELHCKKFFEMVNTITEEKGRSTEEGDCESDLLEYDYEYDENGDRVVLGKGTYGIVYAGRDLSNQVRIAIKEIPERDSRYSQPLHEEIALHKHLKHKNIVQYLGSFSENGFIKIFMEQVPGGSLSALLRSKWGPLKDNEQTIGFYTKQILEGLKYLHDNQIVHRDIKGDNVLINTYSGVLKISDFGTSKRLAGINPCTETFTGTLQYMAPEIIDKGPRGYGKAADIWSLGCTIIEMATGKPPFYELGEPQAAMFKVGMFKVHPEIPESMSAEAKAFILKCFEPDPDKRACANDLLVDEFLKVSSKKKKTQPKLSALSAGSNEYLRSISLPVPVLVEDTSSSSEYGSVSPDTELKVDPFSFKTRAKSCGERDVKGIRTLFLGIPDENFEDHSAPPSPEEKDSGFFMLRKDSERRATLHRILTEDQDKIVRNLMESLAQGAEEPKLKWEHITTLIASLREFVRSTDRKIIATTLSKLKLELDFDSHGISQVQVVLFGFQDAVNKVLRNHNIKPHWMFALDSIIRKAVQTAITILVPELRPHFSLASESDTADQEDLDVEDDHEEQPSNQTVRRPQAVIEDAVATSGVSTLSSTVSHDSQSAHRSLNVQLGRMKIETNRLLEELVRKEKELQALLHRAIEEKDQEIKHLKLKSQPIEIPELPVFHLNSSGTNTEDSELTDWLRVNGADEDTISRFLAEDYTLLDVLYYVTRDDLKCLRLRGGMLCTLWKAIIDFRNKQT

inhibition at 10 µM [%]	Compound
45	O=C1c2scc(-c3ccccc3)c2CN1c1cccc(-c2nncn2C2CC2)n1 [Example 7, 5-(6-(4-cyclopropyl-4H-1,2,4-triazol-3-yl)pyridin-2-yl)-3-phenyl-4,5-dihydro-6H-thieno[2,3-c]pyrrol-6-one]

same assay, conditions: enzyme 50 nM, Myelin basic protein 1 μg/mL, ATP 10 μM

Compound	pIC50
O=C1c2scc(Br)c2CN1c1cccc(-c2nncn2C2CC2)n1 [Example 10, 3-bromo-5-(6-(4-cyclopropyl-4H-1,2,4-triazol-3-yl)pyridin-2-yl)-4,5-dihydro-6H-thieno[2,3-c]pyrrol-6-one]	> 6.00
O=C1c2sc3ccccc3c2CN1c1cccc(-c2nncn2C2CC2)n1 [Example 12, 2-(6-(4-cyclopropyl-4H-1,2,4-triazol-3-yl)pyridin-2-yl)-1,2-dihydro-3H-benzo[4,5]thieno[2,3-c]pyrrol-3-one]	> 6.00
O=C1c2sc(C3CCOCC3)cc2CN1c1cccc(-c2nncn2C2CC2)n1 [Example 4, 5-(6-(4-cyclopropyl-4H-1,2,4-triazol-3-yl)pyridin-2-yl)-2-(tetrahydro-2H-pyran-4-yl)-4,5-dihydro-6H-thieno[2,3-c]pyrrol-6-one]	> 6.00
CC(C)CNc1csc2c1CN(c1cccc(-c3nncn3C3CC3)n1)C2=O [Example 11, 5-(6-(4-cyclopropyl-4H-1,2,4-triazol-3-yl)pyridin-2-yl)-3-(isobutylamino)-4,5-dihydro-6H-thieno[2,3-c]pyrrol-6-one]	5.00 to 6.00
CC(=O)c1ccccc1-c1cc2c(s1)C(=O)N(c1cccc(-c3nncn3C3CC3)n1)C2 [Example 2, 2-(2-Acetylphenyl)-5-(6-(4-cyclopropyl-4H-1,2,4-triazol-3-yl)pyridin-2-yl)-4,5-dihydro-6H-thieno[2,3-c]pyrrol-6-one]	> 6.00
CC(C)n1cnnc1-c1cccc(N2Cc3ccsc3C2=O)n1 [Example 14, 5-(6-(4-isopropyl-4H-1,2,4-triazol-3-yl)pyridin-2-yl)-4,5-dihydro-6H-thieno[2,3-c]pyrrol-6-one]	> 6.00

More lines, now with the values ahead:

pIC50	Compound
> 6.00	O=C1c2sccc2CN1c1cccc(-c2nncn2C2CC2)n1 [Example 1, 5-(6-(4-Cyclopropyl-4H-1,2,4-triazol-3-yl)pyridin-2-yl)-4,5-dihydro-6H-thieno[2,3-c]pyrrol-6-one]
> 6.00	Cc1cc2c(s1)C(=O)N(c1cccc(-c3nncn3C3CC3)n1)C2 [Example 5, 5-(6-(4-cyclopropyl-4H-1,2,4-triazol-3-yl)pyridin-2-yl)-2-methyl-4,5-dihydro-6H-thieno[2,3-c]pyrrol-6-one]
> 6.00	CCc1cc2c(s1)C(=O)N(c1cccc(-c3nncn3C3CC3)n1)C2 [Example 6, 5-(6-(4-cyclopropyl-4H-1,2,4-triazol-3-yl)pyridin-2-yl)-2-ethyl-4,5-dihydro-6H-thieno[2,3-c]pyrrol-6-one]
> 6.00	Cc1csc2c1CN(c1cccc(-c3nncn3C3CC3)n1)C2=O [Example 9, 5-(6-(4-cyclopropyl-4H-1,2,4-triazol-3-yl)pyridin-2-yl)-3-methyl-4,5-dihydro-6H-thieno[2,3-c]pyrrol-6-one]
> 6.00	COc1cc2c(s1)C(=O)N(c1cccc(-c3nncn3C3CC3)n1)C2 [Example 13, 5-(6-(4-cyclopropyl-4H-1,2,4-triazol-3-yl)pyridin-2-yl)-2-methoxy-4,5-dihydro-6H-thieno[2,3-c]pyrrol-6-one]
